Test: Epididymal fat weight and body weight, lactoferrin vs trivalent chromium vs combination (Test Example 5)
Format: in vivo, C57BL/6JNarl mice
Settings: fed 7 weeks; for Body weight / Epididymal fat weight: high-fat diet
Description: The C57BL/6JNarl mice (N=70) are fed with a mouse diet (high-fat Rodent TestDiet, PMI Nutrition International Inc., MO, U.S.A.; 67% of calories provided by fat). The C57BL/6JNarl mice are randomly divided into seven groups and there are ten mice in each group. In one experimental group, the mice are fed with the mouse diet mixed with lactoferrin (NZMP lactoferrin, New Zealand, low dose: 40 mg/kg BW/day, high dose: 80 mg/kg BW/day). In another experimental group, the mice are fed with the mouse diet mixed with trivalent chromium (chromium (III) chloride hexahydrate, low dose: 40 μg/kg BW/day Cr^3+, high dose: 80 μg/kg BW/day Cr^3+). In yet another experimental group, the mice are fed with the mouse diet mixed with a lactoferrin/trivalent chromium composition (low dose: lactoferrin of 40 mg/kg BW/day with Cr^3+ of 40 μg/kg BW/day, high dose: lactoferrin of 80 mg/kg BW/day with Cr^3+ of 80 μg/kg BW/day). In the control group, the mice are fed with the mouse diet containing no other additive. The C57BL/6JNarl mice aged 8 weeks are fed for 7 weeks and then sacrificed to measure the weight of Epididymal fat and body weight, as shown in Table 5.
Accordingly, it can be known that the lactoferrin/trivalent chromium composition provides more significant efficiency in comparison to single lactoferrin or trivalent chromium.

[1] = High dose (lactoferrin 80 mg/kg BW/day and/or Cr3+ 80 μg/kg BW/day)
[2] = Low dose (lactoferrin 40 mg/kg BW/day and/or Cr3+ 40 μg/kg BW/day)

O.O.O.O.O.O.[Cl][Cr]([Cl])[Cl] [Trivalent Chromium, chromium (III) chloride hexahydrate]
Body weight [1]: 27.7 ± 1.35 g
Epididymal fat weight [1]: 0.82 ± 0.2 g
Body weight [2]: 27.8 ± 1.33 g
Epididymal fat weight [2]: 0.78 ± 0.16 g
Epididymal fat weight and body weight vs control group (in words): cannot achieve significant efficiency

— patent publication US20100009014A1, “Use of composition for manufacture of medicant and method for inhibiting formation of body fat” (Maxluck Biotechnology Corp., priority 2008, published 2010)
